For 9 compounds, IC50 and ED50 results are on record in ChEMBL document CHEMBL1133249, “Combined tachykinin receptor antagonist: synthesis and stereochemical structure-activity relationships of novel morpholine analogues” (Bioorg Med Chem Lett, 2000).

As usually defined, the IC50 is the concentration needed to halve the response being measured. Read a high IC50 as a need for much substance.

Experiment [1] addresses Substance-P receptor (Cavia porcellus, UniProt P30547). The experiment in a line: The compound was evaluated in vitro for its ability to displace [3H]SP from Tachykinin receptor 1 of male guinea pig lung membrane. Type of experiment: tissue-based.
Experiment [2] deals with T1, Neuromedin-K receptor (Cavia porcellus, UniProt P30098).
T1 sequence (P30098 whole entry): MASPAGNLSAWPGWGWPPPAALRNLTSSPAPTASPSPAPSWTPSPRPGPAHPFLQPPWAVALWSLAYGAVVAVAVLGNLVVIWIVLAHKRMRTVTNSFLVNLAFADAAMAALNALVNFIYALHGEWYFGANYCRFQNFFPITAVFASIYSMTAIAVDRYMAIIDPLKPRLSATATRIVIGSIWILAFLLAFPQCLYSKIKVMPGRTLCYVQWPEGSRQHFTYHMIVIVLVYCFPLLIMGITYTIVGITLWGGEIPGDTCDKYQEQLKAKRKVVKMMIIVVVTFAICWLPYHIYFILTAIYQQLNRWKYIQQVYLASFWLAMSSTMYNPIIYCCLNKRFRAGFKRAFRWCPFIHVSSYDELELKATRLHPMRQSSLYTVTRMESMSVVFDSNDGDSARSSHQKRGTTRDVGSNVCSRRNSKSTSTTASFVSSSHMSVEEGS
The experiment in a line: The compound was evaluated in vitro for its ability to displace [3H]SP from Tachykinin receptor 3 of male guinea pig lung membrane. Type of experiment: tissue-based.

Experiment [3] addresses T2, Substance-K receptor (Cavia porcellus, UniProt Q64077).
T2 sequence (Q64077 whole entry): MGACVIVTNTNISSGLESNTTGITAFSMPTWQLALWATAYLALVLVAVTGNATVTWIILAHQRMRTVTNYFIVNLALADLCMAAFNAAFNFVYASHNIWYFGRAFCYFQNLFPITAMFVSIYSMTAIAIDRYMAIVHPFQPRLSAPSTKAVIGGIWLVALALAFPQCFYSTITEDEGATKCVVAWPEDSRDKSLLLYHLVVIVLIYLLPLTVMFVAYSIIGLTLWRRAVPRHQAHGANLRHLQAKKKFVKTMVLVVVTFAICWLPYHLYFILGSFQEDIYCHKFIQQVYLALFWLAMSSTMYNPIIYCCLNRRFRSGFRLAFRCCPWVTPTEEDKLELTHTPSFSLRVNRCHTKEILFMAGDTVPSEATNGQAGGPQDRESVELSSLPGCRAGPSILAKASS
The experiment in a line: The compound was evaluated in vitro for its ability to displace [3H]SP from Tachykinin receptor 2 of male guinea pig lung membrane. Type of experiment: tissue-based.

Experiment [4] relates to Cavia porcellus. In words: Inhibitory effect of compound was evaluated after intravenous administration on SP-induced plasma protein extravasation, mediated by NK1 receptors in guinea pig airways. Type of experiment: functional. The following applies: read-out: ID50 (the source's name).
Experiment [5] relates to Cavia porcellus. In words: Inhibitory effect was evaluated after intravenous administration on bronchoconstriction induced by NKA receptor in guinea pigs. The following applies: read-out: ID50 (the source's name). Type of experiment: functional.
The subject of experiment [6] is Cavia porcellus. In words: Inhibitory effect was evaluated after intravenous administration on bronchoconstriction induced by NKB receptor in guinea pigs. Format: functional. Conditions: read-out: ID50 (the source's name).

Sequence of Substance-P receptor (P30547 whole entry): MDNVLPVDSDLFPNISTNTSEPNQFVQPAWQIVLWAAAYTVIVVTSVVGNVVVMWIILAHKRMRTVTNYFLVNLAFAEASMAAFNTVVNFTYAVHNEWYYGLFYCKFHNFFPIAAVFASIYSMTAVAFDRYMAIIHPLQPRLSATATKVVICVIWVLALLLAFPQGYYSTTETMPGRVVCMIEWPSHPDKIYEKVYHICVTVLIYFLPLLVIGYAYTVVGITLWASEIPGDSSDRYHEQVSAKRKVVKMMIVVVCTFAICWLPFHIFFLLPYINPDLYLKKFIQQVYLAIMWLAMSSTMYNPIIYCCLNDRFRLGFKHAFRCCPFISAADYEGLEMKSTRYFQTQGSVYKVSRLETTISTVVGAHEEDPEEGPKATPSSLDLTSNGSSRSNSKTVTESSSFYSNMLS

Turning to `COc1cc(C(=O)N2CCO[C@](CCN3CCC4(CC3)c3ccccc3C[S@@+]4[O-])(c3ccc(Cl)c(Cl)c3)C2)cc(OC)c1OC`, the IC50 in experiment [1] is 220 nM; in experiment [2], 11 nM; in experiment [3], 59 nM.

Turning to `COc1cc(C(=O)N2CCO[C@@](CCN3CCC4(CC3)c3ccccc3C[S@+]4[O-])(c3ccc(Cl)c(Cl)c3)C2)cc(OC)c1OC`, the IC50 in experiment [1] is above 1000 nM; in experiment [2], 520 nM; in experiment [3], above 1000 nM.

For the compound `COc1cc(C(=O)N2CCO[C@](CCN3CCC4(CC3)c3ccccc3C[S@+]4[O-])(c3ccc(Cl)c(Cl)c3)C2)cc(OC)c1OC`, the IC50 in experiment [1] turned out to be 21 nM; in experiment [2], 0.72 nM; in experiment [3] it was 3.1 nM.

For `COc1cc(C(=O)N2CCO[C@](CCN3CCC4(CC3)c3ccccc3C[C@@H]4O)(c3ccc(Cl)c(Cl)c3)C2)cc(OC)c1OC`, the IC50 in experiment [1] amounted to 40 nM; in experiment [2], 2.7 nM; in experiment [3], 6.8 nM.

In the case of `COc1cc(C(=O)N2CCO[C@@](CCN3CCC4(CC3)c3ccccc3C[C@@H]4O)(c3ccc(Cl)c(Cl)c3)C2)cc(OC)c1OC`, the IC50 in experiment [1], in experiment [2] and in experiment [3] was above 1000 nM in each case.

For `COc1cc(C(=O)N2CCO[C@](CCN3CCC4(CC3)c3ccccc3C[C@H]4O)(c3ccc(Cl)c(Cl)c3)C2)cc(OC)c1OC`, the values for the IC50 in experiment [1], in experiment [2] and in experiment [3] were 270 nM, 17 nM and 45 nM, respectively.

With `COc1cc(C(=O)N2CCOC(CCN3CCC4(CC3)c3ccccc3C[S+]4[O-])(c3ccc(Cl)c(Cl)c3)C2)cc(OC)c1OC.Cl` (configuration not stated), the ED50 was 0.33 mg/kg in experiment [4], 0.04 mg/kg in experiment [5] and 0.063 mg/kg in experiment [6].

`COc1cc(C(=O)N2CCO[C@@](CCN3CCC4(CC3)c3ccccc3C[S@@+]4[O-])(c3ccc(Cl)c(Cl)c3)C2)cc(OC)c1OC` (racemic): the results for the IC50 in experiment [1], in experiment [2] and in experiment [3] were above 1000 nM, 660 nM and above 1000 nM, respectively.

For `COc1cc(C(=O)N2CCO[C@@](CCN3CCC4(CC3)c3ccccc3C[C@H]4O)(c3ccc(Cl)c(Cl)c3)C2)cc(OC)c1OC` (racemic), the IC50 in experiment [1], in experiment [2] and in experiment [3] was above 1000 nM in each case.
